Legend:
[1] = molecular target: T1, Catechol O-methyltransferase (Rattus norvegicus) (UniProt P22734); experiment: Percent inhibition of Catechol O-methyltransferase activity in rat liver at dose of 30 mg/kg determined at 6 hr after its administration; type: organism-based; design: dose 30 mg/kg
T1 sequence (whole entry): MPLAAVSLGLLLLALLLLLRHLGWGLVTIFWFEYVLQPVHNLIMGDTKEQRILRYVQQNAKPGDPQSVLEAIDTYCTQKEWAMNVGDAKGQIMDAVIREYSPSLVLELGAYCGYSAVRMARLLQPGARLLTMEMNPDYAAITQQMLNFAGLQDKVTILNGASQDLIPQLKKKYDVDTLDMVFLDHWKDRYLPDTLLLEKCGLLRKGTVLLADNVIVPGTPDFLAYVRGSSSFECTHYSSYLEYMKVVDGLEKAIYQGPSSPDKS

[2] = molecular target: T1, Catechol O-methyltransferase (Rattus norvegicus); experiment: Percent inhibition of Catechol O-methyltransferase activity in rat brain at dose of 30 mg/kg determined at 6 h after its administration; type: organism-based; design: dose 30 mg/kg

Row | inhibition [1] [%] | inhibition [2] [%] | SMILES
1 | 83 | 17 | O=C(Cc1ccc2ccccc2c1)c1cc(O)c(O)c([N+](=O)[O-])c1
2 | 78 | 28 | O=C(Cc1ccc(-c2ccccc2)cc1)c1cc(O)c(O)c([N+](=O)[O-])c1
3 | 83 | 23 | Cc1ccc(CC(=O)c2cc(O)c(O)c([N+](=O)[O-])c2)cc1
4 | 42 | 44 | CC(=O)Oc1cc(C(=O)C(C)c2ccccc2)cc([N+](=O)[O-])c1OC(C)=O (stereo not given)
5 | 14 | 19 | CC(=O)Oc1cc(C(=O)C2(c3ccccc3)CCCCC2)cc([N+](=O)[O-])c1OC(C)=O
6 | 72 | 39 | O=C(CC1CCCCC1)c1cc(O)c(O)c([N+](=O)[O-])c1
7 | 15 | 29 | O=c1oc(-c2cc(O)c(O)c([N+](=O)[O-])c2)cc2ccccc12
8 | 48 | 13 | O=[N+]([O-])c1cc(/C(Cc2ccccc2)=N\O)cc(O)c1O
9 | 74 | 33 | Cc1ccccc1CC(=O)c1cc(O)c(O)c([N+](=O)[O-])c1
10 | 13 | 7 | O=C(c1cc(O)c(O)c([N+](=O)[O-])c1)C(c1ccccc1)c1ccccc1
11 | 39 | 34 | O=C(Cc1ccccc1C(=O)O)c1cc(O)c(O)c([N+](=O)[O-])c1
12 | 28 | 20 | CC(=O)Oc1cc(C(=O)Cc2ccccc2[N+](=O)[O-])cc([N+](=O)[O-])c1OC(C)=O
13 | 72 | 25 | COc1ccc(CC(=O)c2cc(OC(C)=O)c(OC(C)=O)c([N+](=O)[O-])c2)cc1
14 | 19 | 23 | CC(=O)Oc1cc(C(=O)C(C)(C)c2ccccc2)cc([N+](=O)[O-])c1OC(C)=O
15 | 69 | 12 | O=C(Cc1ccc(Cl)cc1)c1cc(O)c(O)c([N+](=O)[O-])c1
16 | 63 | 44 | CC(=O)Oc1cc(C(=O)C(Cc2ccccc2)c2ccccc2)cc([N+](=O)[O-])c1OC(C)=O (stereo not given)
17 | 70 | 10 | O=C(Cc1cccc2ccccc12)c1cc(O)c(O)c([N+](=O)[O-])c1
18 | 49 | 0 | CC(=O)Oc1cc(C(=O)Cc2ccc([N+](=O)[O-])cc2)cc([N+](=O)[O-])c1OC(C)=O
19 | 48 | 20 | CC(=O)Oc1cc(C(=O)C(Br)c2ccccc2)cc([N+](=O)[O-])c1OC(C)=O (stereo not given)
20 | 0 | 10 | O=[N+]([O-])c1cc(CCc2ccccc2)cc(O)c1O

— ChEMBL document CHEMBL1135708, “Synthesis of 1-(3,4-dihydroxy-5-nitrophenyl)-2-phenyl-ethanone and derivatives as potent and long-acting peripheral inhibitors of catechol-O-methyltransferase” (J Med Chem, 2002)
